In patent US20170266186A1, “USE OF INHIBITORS OF BRUTON'S TYROSINE KINASE (BTK)” (Pharmacyclics LLC, priority 2011, published 2017):

Tests used:
[1] = parameters: species or system human; details: in vivo
DHL-4 = assay: growth inhibition by PCI-32765, DHL-4; format: cell-based; details: Homo sapiens; DHL-4, DLBCL, GCB
DHL-10 = assay: growth inhibition by PCI-32765, DHL-10; format: cell-based; details: Homo sapiens; DHL-10, DLBCL, GCB
LY19 = assay: growth inhibition by PCI-32765, LY19; format: cell-based; details: Homo sapiens; LY19, DLBCL, GCB (CARD11)
WSU-NHL = assay: growth inhibition by PCI-32765, WSU-NHL; format: cell-based; details: Homo sapiens, FL-transformed
WSU-DLCL2 = assay: growth inhibition by PCI-32765, WSU-DLCL2; format: cell-based; details: Homo sapiens, WSUDLCL2; WSU-DLCL2, FL-transformed
Mino = assay: growth inhibition by PCI-32765, Mino; format: cell-based; details: Homo sapiens, Mantle cell
Jeko-1 = assay: growth inhibition by PCI-32765, Jeko-1; format: cell-based; details: Homo sapiens; Jeko-1, Mantle cell
Mino cells [2] = assay: co-culture assay: migration of Mino cells beneath M2-10B4 stromal cells (pseudoemperipoliesis); format: cell-based, human; details: significant at 100 nM (p<0.01) and 1000 nM (p<0.001)
Mino cells [3] = assay: actin polymerization in Mino cells (phalloidin); format: cell-based, human; details: 10 and 100 nM (p<0.001)
clinical = details: human, plasma; for AUC(0-inf): Mean (CV) AUC0-∞; for AUC(0-t): Mean AUC0-24h, steady state (Day 8)
[4] = tested on: Mino, Jekol and JVM-1 cells; assay: migration assay, CXCL12-induced; details: Mino and Jekol more sensitive than JVM-1
Mino cells [5] = assay: adhesion assay, chemokine-mediated, Mino; details: Homo sapiens, read-out: inhibition of adhesion to VCAM1 or fibronectin following CXCL12 or CXCL13 activations
Jekol cells = assay: adhesion assay, chemokine-mediated, Jekol; details: Homo sapiens, read-out: inhibition of adhesion to VCAM1 or fibronectin following CXCL12 or CXCL13 activations
primary MCL = assay: actin polymerization of primary MCL in co-culture; details: 100 nM (p<0.001)
MCL patients = assay: ALC and tumor volume (SPD) in MCL patients treated with ibrutinib
[6] = tested on: Btk, PLCy2, Erk, JNK and Akt phosphorylation; assay: Btk signaling in MCL cell lines after anti-IgM, CXCL12 and CXCL13 stimulation; details: following anti-IgM, CXCL12 and CXCL13 stimulations

C=CC(=O)N1CCC[C@@H](n2nc(-c3ccc(Oc4ccccc4)cc3)c3c(N)ncnc32)C1 [PCI-32765, (R)-1-(3-(4-amino-3-(4-phenoxyphenyl)-1H-pyrazolo[3,4-d]pyrimidin-1-yl)piperidin-1-yl)prop-2-en-1-one]
DLTs at the final dose level [1]: No DLTs were observed | dose limiting toxicities (DLTs) documented [1]: Two | GI50 (DHL-4): 530 nM | GI50 (DHL-10): 3700 nM | GI50 (LY19): > 10000 nM | GI50 (WSU-NHL): 120 nM | GI50 (WSU-DLCL2): 500 nM | GI50 (Mino): 150 nM | GI50 (Jeko-1): > 10000 nM | migration of Mino cells beneath the stromal cells (Mino cells [2]): dose-dependently inhibited | CXCL12-increased cortical actin of Mino cells (Mino cells [3]): dose-dependently and significantly inhibited | AUC(0-inf) (clinical; 1.25 mg/kg, Day 1, cohort 1, 1.25 mg/kg): 181 ng·h/mL | Tmax (clinical; 1.25 mg/kg, Mean (CV) Tmax, Day 1, cohort 1, 1.25 mg/kg): 1 h | AUC(0-t) (clinical; 1.25 mg/kg, cohort 1, 1.25 mg/kg): 301 ng·h/mL | AUC(0-inf) (clinical; 5 mg/kg, Day 1, cohort 3, 5 mg/kg): 419 ng·h/mL | Tmax (clinical; 5 mg/kg, Mean (CV) Tmax, Day 1, cohort 3, 5 mg/kg): 2.3 h | AUC(0-t) (clinical; 5 mg/kg, cohort 3, 5 mg/kg): 1580 ng·h/mL | AUC(0-inf) (clinical; 8.3 mg/kg, Day 1, cohort 4, 8.3 mg/kg): 923 ng·h/mL | AUC(0-inf) (clinical; 8.3 mg/kg, Day 1, cohort CD (continuous dosing), 8.3 mg/kg): 1030 ng·h/mL | Tmax (clinical; 8.3 mg/kg, Mean (CV) Tmax, Day 1, cohort 4, 8.3 mg/kg): 1.8 h | Tmax (clinical; 8.3 mg/kg, Mean (CV) Tmax, Day 1, cohort CD (continuous dosing), 8.3 mg/kg): 2.2 h | AUC(0-t) (clinical; 8.3 mg/kg, cohort 4, 8.3 mg/kg): 2330 ng·h/mL | AUC(0-t) (clinical; 8.3 mg/kg, cohort CD (continuous dosing), 8.3 mg/kg): 1540 ng·h/mL | AUC(0-inf) (clinical; 12.5 mg/kg, Day 1, cohort 5, 12.5 mg/kg): 1550 ng·h/mL | Tmax (clinical; 12.5 mg/kg, Mean (CV) Tmax, Day 1, cohort 5, 12.5 mg/kg): 1.7 h | AUC(0-t) (clinical; 12.5 mg/kg, cohort 5, 12.5 mg/kg): 2940 ng·h/mL | AUC(0-inf) (clinical; 560 mg, Day 1, Fixed cohort, 560 mg fixed dose): 749 ng·h/mL | Tmax (clinical; 560 mg, Mean (CV) Tmax, Day 1, Fixed cohort, 560 mg fixed dose): 1.8 h | AUC(0-t) (clinical; 560 mg, Fixed cohort, 560 mg fixed dose): 1550 ng·h/mL | Tmax (clinical; […], Mean (CV) Tmax, Day 1, cohort 2, […]): 2.1 h | Tmax (clinical; time to maximum plasma concentration (Tmax), range over dose levels): 1 to 2.3 h | CXCL12-induced migration [4]: dose-dependently inhibited | inhibition at 0.1 µM (Mino cells [5]): 50 to 70% | inhibition at 0.1 µM (Jekol cells): 20 to 30% | actin polymerization of primary MCL in co-culture (primary MCL): suppressed | increase in ALC (MCL patients; Phase 2, 560 mg per day, following 2-4 weeks of drug treatment): 100-150% | reduction of tumor volumes (Sum of Perpendicular Diameters, SPD), on average (MCL patients; Phase I, MCL patients (n=9), evaluations following 2, 4 and 6 cycles): 80% | phosphorylation of Btk and downstream PLCy2, Erk, JNK and Akt [6]: inhibited
